Assay results as given in the supplement of paper PMC10307832.

Key:
Assay in all cases: relative viability (nuclei count vs DMSO), 5 days (fraction); higher = more cells survive
Veliparib + Navitoclax = compound: C[C@]1(c2nc3c(C(N)=O)cccc3[nH]2)CCCN1 [Veliparib] + CC1(C)CCC(c2ccc(Cl)cc2)=C(CN2CCN(c3ccc(C(=O)NS(=O)(=O)c4ccc(N[C@H](CCN5CCOCC5)CSc5ccccc5)c(S(=O)(=O)C(F)(F)F)c4)cc3)CC2)C1 [Navitoclax] (partner 0.5 µM)
Outline: (§1)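 One day after seeding in 1536-well plates, lung cancer cell lines were dosed by pin tool. Dosing was either single-drug or a fixed anchor-drug dose plus five library-drug doses (not always all listed) in √10 steps. After 5 days, nuclei were stained in one fix-and-stain step and counted on 4× images, and relative viability is the nuclei count of treated wells over that of vehicle wells, given as the median of duplicate plates.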

[1] = compound: COC1=CC=C(C=C1)CN2C=CC3=C2C=C(C=C3)C(=O)NO + N=C(N)NC(=N)NCCc1ccccc1 [Phenformin] (partner 250 µM)
Outline: as §1

[2] = compound: COC1=CC=C(C=C1)CN2C=CC3=C2C=C(C=C3)C(=O)NO + CC(=O)Nc1cccc(-n2c(=O)n(C3CC3)c(=O)c3c(Nc4ccc(I)cc4F)n(C)c(=O)c(C)c32)c1 [Trametinib] (partner 0.02 µM)
Outline: as §1

[3] = compound: COC1=CC=C(C=C1)CN2C=CC3=C2C=C(C=C3)C(=O)NO + Nc1ncn([C@H]2C[C@H](O)[C@@H](CO)O2)c(=O)n1 [Decitabine] (partner 2 µM)
Outline: as §1

For NCI-H1703, the relative viability (Veliparib + Navitoclax; first compound 0.02 µM) was 1.62, the relative viability (Veliparib + Navitoclax; first compound 0.06325 µM) was 0.849 and the relative viability (Veliparib + Navitoclax; first compound 0.2 µM) was 1.08. The relative viability (Veliparib + Navitoclax; first compound 0.6325 µM) was 0.977 and the relative viability (Veliparib + Navitoclax; first compound 2 µM) was 1.29.
With H3255 the relative viability (Veliparib + Navitoclax; first compound 0.02 µM) was 0.479, the relative viability (Veliparib + Navitoclax; first compound 0.06325 µM) was 0.445 and the relative viability (Veliparib + Navitoclax; first compound 0.2 µM) was 0.537. For the same cell line, the relative viability (Veliparib + Navitoclax; first compound 0.6325 µM) was 0.477, the relative viability (Veliparib + Navitoclax; first compound 2 µM) was 0.518 and the relative viability ([1]; first compound 0.08 µM) was 0.334. It also gave a relative viability ([1]; first compound 0.253 µM) of 0.39, a relative viability ([1]; first compound 0.8 µM) of 0.347 and a relative viability ([1]; first compound 2.53 µM) of 0.353. For the same cell line, the relative viability ([1]; first compound 8 µM) was 0.359, the relative viability ([2]; first compound 0.08 µM) was 0.593 and the relative viability ([2]; first compound 0.253 µM) was 0.608. For the same cell line, the relative viability ([2]; first compound 0.8 µM) was 0.618, the relative viability ([2]; first compound 2.53 µM) was 0.672 and the relative viability ([2]; first compound 8 µM) was 0.547. For the same cell line, the relative viability ([3]; first compound 0.08 µM) was 0.565, the relative viability ([3]; first compound 0.253 µM) was 0.551 and the relative viability ([3]; first compound 0.8 µM) was 0.627. It also gave a relative viability ([3]; first compound 2.53 µM) of 0.55 and a relative viability ([3]; first compound 8 µM) of 0.567.
Work on NCI-H1648 yielded a relative viability ([2]; first compound 0.08 µM) of 0.413, a relative viability ([2]; first compound 0.253 µM) of 0.42 and a relative viability ([2]; first compound 0.8 µM) of 0.461. The relative viability ([2]; first compound 2.53 µM) was 0.583, the relative viability ([2]; first compound 8 µM) was 0.438 and the relative viability ([3]; first compound 0.08 µM) was 0.435. The relative viability ([3]; first compound 0.253 µM) was 0.553, the relative viability ([3]; first compound 0.8 µM) was 0.554 and the relative viability ([3]; first compound 2.53 µM) was 0.539. For the same cell line, the relative viability ([3]; first compound 8 µM) was 0.46.
EBC-1 gave a relative viability (Veliparib + Navitoclax; first compound 0.02 µM) of 0.508, a relative viability (Veliparib + Navitoclax; first compound 0.06325 µM) of 0.405 and a relative viability (Veliparib + Navitoclax; first compound 0.2 µM) of 0.487. The relative viability (Veliparib + Navitoclax; first compound 0.6325 µM) was 0.334 and the relative viability (Veliparib + Navitoclax; first compound 2 µM) was 0.407.
Cell Line NCI-H650 has a relative viability ([1]; first compound 0.08 µM) of 0.468, a relative viability ([1]; first compound 0.253 µM) of 0.45 and a relative viability ([1]; first compound 0.8 µM) of 0.488. The relative viability ([1]; first compound 2.53 µM) was 0.458, the relative viability ([1]; first compound 8 µM) was 0.399 and the relative viability ([2]; first compound 0.08 µM) was 1.07. The relative viability ([2]; first compound 0.253 µM) was 0.981, the relative viability ([2]; first compound 0.8 µM) was 1 and the relative viability ([2]; first compound 2.53 µM) was 1.03. For the same cell line, the relative viability ([2]; first compound 8 µM) was 1.04, the relative viability ([3]; first compound 0.08 µM) was 0.298 and the relative viability ([3]; first compound 0.253 µM) was 0.306. It also gave a relative viability ([3]; first compound 0.8 µM) of 0.359, a relative viability ([3]; first compound 2.53 µM) of 0.3 and a relative viability ([3]; first compound 8 µM) of 0.296.
ABC-1 was tested, and the relative viability ([1]; first compound 0.253 µM) was 0.216, the relative viability ([1]; first compound 0.8 µM) was 0.246 and the relative viability ([1]; first compound 2.53 µM) was 0.296. For the same cell line, the relative viability ([1]; first compound 8 µM) was 0.234, the relative viability ([3]; first compound 0.253 µM) was 1.16 and the relative viability ([3]; first compound 0.8 µM) was 1.21. For the same cell line, the relative viability ([3]; first compound 2.53 µM) was 1.21 and the relative viability ([3]; first compound 8 µM) was 0.929.
A549 gave a relative viability (Veliparib + Navitoclax; first compound 0.02 µM) of 1.25, a relative viability (Veliparib + Navitoclax; first compound 0.06325 µM) of 1.18 and a relative viability (Veliparib + Navitoclax; first compound 0.2 µM) of 1.17. The relative viability (Veliparib + Navitoclax; first compound 0.6325 µM) was 1.16, the relative viability (Veliparib + Navitoclax; first compound 2 µM) was 1.13 and the relative viability ([1]; first compound 0.253 µM) was 0.159. The relative viability ([1]; first compound 0.8 µM) was 0.173, the relative viability ([1]; first compound 2.53 µM) was 0.188 and the relative viability ([1]; first compound 8 µM) was 0.0674. The relative viability ([3]; first compound 0.08 µM) was 0.187, the relative viability ([3]; first compound 0.253 µM) was 0.264 and the relative viability ([3]; first compound 0.8 µM) was 0.286. It also gave a relative viability ([3]; first compound 2.53 µM) of 0.235 and a relative viability ([3]; first compound 8 µM) of 0.374.
For SW 900, the relative viability ([1]; first compound 0.08 µM) was 0.643, the relative viability ([1]; first compound 0.253 µM) was 0.652 and the relative viability ([1]; first compound 0.8 µM) was 0.593. It also gave a relative viability ([1]; first compound 2.53 µM) of 0.512, a relative viability ([1]; first compound 8 µM) of 0.339 and a relative viability ([2]; first compound 0.08 µM) of 0.722. The relative viability ([2]; first compound 0.253 µM) was 0.774, the relative viability ([2]; first compound 0.8 µM) was 0.872 and the relative viability ([2]; first compound 2.53 µM) was 0.674. The relative viability ([2]; first compound 8 µM) was 0.766, the relative viability ([3]; first compound 0.08 µM) was 0.441 and the relative viability ([3]; first compound 0.253 µM) was 0.403. It also gave a relative viability ([3]; first compound 0.8 µM) of 0.446, a relative viability ([3]; first compound 2.53 µM) of 0.423 and a relative viability ([3]; first compound 8 µM) of 0.411.
In the case of LCLC-103H, the relative viability ([1]; first compound 0.08 µM) is reported as 0.339, the relative viability ([1]; first compound 0.253 µM) is reported as 0.339 and the relative viability ([1]; first compound 0.8 µM) is reported as 0.398. The relative viability ([1]; first compound 2.53 µM) was 0.347, the relative viability ([1]; first compound 8 µM) was 0.287 and the relative viability ([2]; first compound 0.08 µM) was 0.653. It also gave a relative viability ([2]; first compound 0.253 µM) of 0.65, a relative viability ([2]; first compound 0.8 µM) of 0.715 and a relative viability ([2]; first compound 2.53 µM) of 0.694. The relative viability ([2]; first compound 8 µM) was 0.679, the relative viability ([3]; first compound 0.08 µM) was 0.731 and the relative viability ([3]; first compound 0.253 µM) was 0.812. For the same cell line, the relative viability ([3]; first compound 0.8 µM) was 0.761, the relative viability ([3]; first compound 2.53 µM) was 0.779 and the relative viability ([3]; first compound 8 µM) was 0.681.
In the case of NCI-H1299, the relative viability (Veliparib + Navitoclax; first compound 0.02 µM) is reported as 1.06, the relative viability (Veliparib + Navitoclax; first compound 0.06325 µM) is reported as 0.989 and the relative viability (Veliparib + Navitoclax; first compound 0.2 µM) is reported as 1.03. The relative viability (Veliparib + Navitoclax; first compound 0.6325 µM) was 0.996 and the relative viability (Veliparib + Navitoclax; first compound 2 µM) was 1.07.
NCI-H1563 was tested, and the relative viability ([1]; first compound 0.08 µM) was 0.622, the relative viability ([1]; first compound 0.253 µM) was 0.676 and the relative viability ([1]; first compound 0.8 µM) was 0.671. The relative viability ([1]; first compound 2.53 µM) was 0.664 and the relative viability ([1]; first compound 8 µM) was 0.534.
With NCI-H522 the relative viability ([1]; first compound 0.253 µM) was 0.591, the relative viability ([1]; first compound 0.8 µM) was 0.614 and the relative viability ([1]; first compound 2.53 µM) was 0.654. For the same cell line, the relative viability ([1]; first compound 8 µM) was 0.651, the relative viability ([2]; first compound 0.253 µM) was 0.812 and the relative viability ([2]; first compound 0.8 µM) was 0.678. The relative viability ([2]; first compound 2.53 µM) was 0.767, the relative viability ([2]; first compound 8 µM) was 0.64 and the relative viability ([3]; first compound 0.253 µM) was 0.649. The relative viability ([3]; first compound 0.8 µM) was 0.606, the relative viability ([3]; first compound 2.53 µM) was 0.63 and the relative viability ([3]; first compound 8 µM) was 0.765.
